Measured values as given in patent US20090233940A1, “Insecticide Compositions” (priority 2008, published 2009).

Key:
Cycad Asian Scale = assay: Killing of scale insects / exterminating Cycad Asian Scale populations (general statements); settings: in vivo
[1] = can be used outdoors as well as indoors; cited from earlier work

CCOC(=O)CC(SP(=S)(OC)OC)C(=O)OCC (centres unmarked) [Malathion, malathion]
usefulness in exterminating Cycad Asian Scale populations (Cycad Asian Scale): particularly useful

CC(COc1ccc(Oc2ccccc2)cc1)Oc1ccccn1 (centres unmarked) [Nylar]
photostability [1]: photostable
